Measured values reported in patent US11667649B2, “Heteroaromatic macrocyclic ether chemotherapeutic agents” (Nuvalent, Inc., priority 2020, dated 2023).

Test system: TPM3-NTRK1-wt IC50 / primary target (e.g. CD74-ROS1-wt) IC50, Ba/F3 cells
Test: Cell assay TRKA selectivity (TRKA potency divided by primary target potency)
Format: cell-based
Conditions: for TPM3-NTRK1-wt/CD74-ROS1-G2032R: TRKA selectivity ratio: TPM3-NTRK1-wt IC50 / CD74-ROS1-G2032R IC50, Ba/F3 cells; for TPM3-NTRK1-wt/CD74-ROS1-wt: TRKA selectivity ratio: TPM3-NTRK1-wt IC50 / CD74-ROS1-wt IC50, Ba/F3 cells; for TPM3-NTRK1-wt/EML4-ALK-L1196M-G1202R: TRKA selectivity ratio: TPM3-NTRK1-wt IC50 / EML4-ALK-L1196M-G1202R IC50, Ba/F3 cells; for TPM3-NTRK1-wt/EML4-ALK-wt: TRKA selectivity ratio: TPM3-NTRK1-wt IC50 / EML4-ALK-wt IC50, Ba/F3 cells
Method in brief: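 IL-3-independent Ba/F3 lines stably expressing TPM3-TRKA or the primary fusion (e.g. CD74-ROS1 wt) were exposed to 3-fold compound dilutions for 72 h. Viability was read by CellTiter-Glo luminescence, with IC50 from four-parameter logistic fit. Selectivity is TPM3-NTRK1 IC50 divided by primary-target IC50, binned A (>30-fold) to D (<1).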

| Compound | TPM3-NTRK1-wt/CD74-ROS1-G2032R | TPM3-NTRK1-wt/CD74-ROS1-wt | TPM3-NTRK1-wt/EML4-ALK-L1196M-G1202R | TPM3-NTRK1-wt/EML4-ALK-wt |
| --- | --- | --- | --- | --- |
| CCn1ncc2c1-c1cnc(N)c(c1)OCc1cc(F)ccc1-c1nccn1C2 [Example 34, 3-ethyl-16-fluoro-20-oxa-3,4,8,11,23-pentaazapentacyclo[19.3.1.0^2,^6.0^8,^12.0^13,^18]pentacosa-1(24),2(6),4,9,11,13,15,17,21(25),22-decaen-22-amine] | A (bin A for very high selectivity, ratio>30-fold) | A (bin A for very high selectivity, ratio>30-fold) | B (bin B for high selectivity, ratio>10-fold) | A (bin A for very high selectivity, ratio>30-fold) |
| CCn1nc(Cl)c2c1-c1cnc(N)c(c1)O[C@H](C)c1cc(F)ccc1-n1nc(C)cc1C2 [Example 76, (19R)-5-chloro-3-ethyl-16-fluoro-10,19-dimethyl-20-oxa-3,4,11,12,23-pentaazapentacyclo[19.3.1.0^2,^6.0^8,^12.0^13,^18]pentacosa-1(24),2(6),4,8,10,13,15,17,21(25),22-decaen-22-amine] | A (bin A for very high selectivity, ratio>30-fold) | A (bin A for very high selectivity, ratio>30-fold) | B (bin B for high selectivity, ratio>10-fold) | A (bin A for very high selectivity, ratio>30-fold) |
| C[C@H]1Oc2cc(cnc2N)-c2c(nn(C)c2C#N)Cc2ccnn2-c2ccc(F)cc21 [Example 169, (19R)-22-amino-16-fluoro-4,19-dimethyl-20-oxa-4,5,11,12,23-pentaazapentacyclo[19.3.1.0^2,^6.0^8,^12.0^13,^18]pentacosa-1(24),2,5,8,10,13,15,17,21(25),22-decaene-3-carbonitrile] | C (bin C for moderate selectivity, ratio≥1) | A (bin A for very high selectivity, ratio>30-fold) | D (bin D for low selectivity, ratio<1) | A (bin A for very high selectivity, ratio>30-fold) |
| C[C@H]1Oc2cc(cnc2N)-c2c(c(Cl)nn2CC(F)F)Cc2cn(C)nc2-c2ccc(F)cc21 [Example 83, (19R)-5-chloro-3-(2,2-difluoroethyl)-16-fluoro-10,19-dimethyl-20-oxa-3,4,10,11,23-pentaazapentacyclo[19.3.1.0^2,^6.0^8,^12.0^13,^18]pentacosa-1(24),2(6),4,8,11,13,15,17,21(25),22-decaen-22-amine] | A (bin A for very high selectivity, ratio>30-fold) | A (bin A for very high selectivity, ratio>30-fold) | A (bin A for very high selectivity, ratio>30-fold) | A (bin A for very high selectivity, ratio>30-fold) |
| C[C@H]1Oc2cc(cnc2N)-c2c(cnn2CC(F)F)Cc2cc(C(F)(F)F)nn2-c2ccc(F)cc21 [Example 84, (19R)-3-(2,2-difluoroethyl)-16-fluoro-19-methyl-10-(trifluoromethyl)-20-oxa-3,4,11,12,23-pentaazapentacyclo[19.3.1.0^2,^6.0^8,^12.0^13,^18]pentacosa-1(24),2(6),4,8,10,13,15,17,21(25),22-decaen-22-amine] | A (bin A for very high selectivity, ratio>30-fold) | A (bin A for very high selectivity, ratio>30-fold) | C (bin C for moderate selectivity, ratio≥1) | A (bin A for very high selectivity, ratio>30-fold) |
| CCn1ncc2c1-c1cnc(N)c(c1)O[C@H](C)c1cc(F)ccc1-c1c(cnn1C)C2 [Example 32, (19R)-3-ethyl-16-fluoro-11,19-dimethyl-20-oxa-3,4,10,11,23-pentaazapentacyclo[19.3.1.0^2,^6.0^8,^12.0^13,^18]pentacosa-1(24),2(6),4,8(12),9,13,15,17,21(25),22-decaen-22-amine] | A (bin A for very high selectivity, ratio>30-fold) | A (bin A for very high selectivity, ratio>30-fold) | C (bin C for moderate selectivity, ratio≥1) | B (bin B for high selectivity, ratio>10-fold) |
| COc1cc2n(n1)-c1ccc(F)cc1[C@@H](C)Oc1cc(cnc1N)-c1c(c(C)nn1CC1CC1)C2 [Example 124, (19R)-3-(cyclopropylmethyl)-16-fluoro-10-methoxy-5,19-dimethyl-20-oxa-3,4,11,12,23-pentaazapentacyclo[19.3.1.0^2,^6.0^8,^12.0^13,^18]pentacosa-1(24),2(6),4,8,10,13,15,17,21(25),22-decaen-22-amine] | A (bin A for very high selectivity, ratio>30-fold) | A (bin A for very high selectivity, ratio>30-fold) | A (bin A for very high selectivity, ratio>30-fold) | A (bin A for very high selectivity, ratio>30-fold) |
| Cc1nn(CC2CC2)c2c1Cc1cn(C)nc1-c1ccc(F)cc1COc1cc-2cnc1N [Example 127, 3-(cyclopropylmethyl)-16-fluoro-5,10-dimethyl-20-oxa-3,4,10,11,23-pentaazapentacyclo[19.3.1.0^2,^6.0^8,^12.0^13,^18]pentacosa-1(24),2(6),4,8,11,13,15,17,21(25),22-decaen-22-amine] | A (bin A for very high selectivity, ratio>30-fold) | A (bin A for very high selectivity, ratio>30-fold) | A (bin A for very high selectivity, ratio>30-fold) | A (bin A for very high selectivity, ratio>30-fold) |
| CC1Oc2cc(cnc2N)-c2c(cnn2C2CCC2)Cn2ccnc2-c2ccc(F)cc21 (centres unmarked) [Example 37, 3-cyclobutyl-16-fluoro-19-methyl-20-oxa-3,4,8,11,23-pentaazapentacyclo[19.3.1.0^2,^6.0^8,^12.0^13,^18]pentacosa-1(24),2(6),4,9,11,13,15,17,21(25),22-decaen-22-amine] | A (bin A for very high selectivity, ratio>30-fold) | A (bin A for very high selectivity, ratio>30-fold) | A (bin A for very high selectivity, ratio>30-fold) | A (bin A for very high selectivity, ratio>30-fold) |
| CCn1nnc2c1-c1cnc(N)c(c1)O[C@H](C)c1cc(F)ccc1-c1ncc(F)cc1C2 [Example 70, (20R)-3-ethyl-10,17-difluoro-20-methyl-21-oxa-3,4,5,12,24-pentaazapentacyclo[20.3.1.0^2,^6.0^8,^13.0^14,^19]hexacosa-1(25),2(6),4,8(13),9,11,14,16,18,22(26),23-undecaen-23-amine] | A (bin A for very high selectivity, ratio>30-fold) | A (bin A for very high selectivity, ratio>30-fold) | C (bin C for moderate selectivity, ratio≥1) | A (bin A for very high selectivity, ratio>30-fold) |
| Cc1cc2n(n1)-c1ccc(F)cc1COc1cc(cnc1N)-c1c(cnn1CC1CC1)C2 [Example 126, 3-(cyclopropylmethyl)-16-fluoro-10-methyl-20-oxa-3,4,11,12,23-pentaazapentacyclo[19.3.1.0^2,^6.0^8,^12.0^13,^18]pentacosa-1(24),2(6),4,8,10,13,15,17,21(25),22-decaen-22-amine] | A (bin A for very high selectivity, ratio>30-fold) | A (bin A for very high selectivity, ratio>30-fold) | A (bin A for very high selectivity, ratio>30-fold) | A (bin A for very high selectivity, ratio>30-fold) |
| C[C@H]1Oc2cc(cnc2N)-c2c(nn(C)c2CC2CC2)Cc2ccnn2-c2ccc(F)cc21 [Example 177, (19R)-3-(cyclopropylmethyl)-16-fluoro-4,19-dimethyl-20-oxa-4,5,11,12,23-pentaazapentacyclo[19.3.1.0^2,^6.0^8,^12.0^13,^18]pentacosa-1(24),2,5,8,10,13,15,17,21(25),22-decaen-22-amine] | A (bin A for very high selectivity, ratio>30-fold) | A (bin A for very high selectivity, ratio>30-fold) | B (bin B for high selectivity, ratio>10-fold) | A (bin A for very high selectivity, ratio>30-fold) |
| CCn1ncc2c1-c1cnc(N)c(c1)O[C@H](C)c1cc(F)ccc1-n1nc(OC)cc1C2 [Example 98, (19R)-3-ethyl-16-fluoro-10-methoxy-19-methyl-20-oxa-3,4,11,12,23-pentaazapentacyclo[19.3.1.0^2,^6.0^8,^12.0^13,^18]pentacosa-1(24),2(6),4,8,10,13,15,17,21(25),22-decaen-22-amine] | A (bin A for very high selectivity, ratio>30-fold) | A (bin A for very high selectivity, ratio>30-fold) | C (bin C for moderate selectivity, ratio≥1) | B (bin B for high selectivity, ratio>10-fold) |
| CC1Oc2cc(cnc2N)-c2c(cnn2C)Cc2cnn(C)c2-c2ccc(F)cc21 (centres unmarked) [Example 2, 16-fluoro-3,11,19-trimethyl-20-oxa-3,4,10,11,23-pentaazapentacyclo[19.3.1.0^2,^6.0^8,^12.0^13,^18]pentacosa-1(24),2(6),4,8(12),9,13,15,17,21(25),22-decaen-22-amine] | B (bin B for high selectivity, ratio>10-fold) | A (bin A for very high selectivity, ratio>30-fold) | D (bin D for low selectivity, ratio<1) | B (bin B for high selectivity, ratio>10-fold) |
